We go through eight molecules from PubChem BioAssay (NCI).

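The compound was tested at five concentrations on cells cultured in 96-well plates, with a 48-hour exposure period. At the GI50, growth is halved. Definition used: TGI = concentration required for complete inhibition of growth.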

Among the test systems are BT-549 breast; DU-145 prostate; NCI-H226 lung; OVCAR-5 ovarian; PC-3 prostate; SF-539 CNS; SK-OV-3 ovarian; SNB-19 CNS; UO-31 renal; SK-MEL-2 melanoma.
Assay in all cases: inhibition of tumour cell growth, NCI panel, 48 h

On to `Nc1nc(SCc2ccccc2CCl)c2[nH]cnc2n1`, for which the GI50 is 13.7 µM in the assay on BT-549 breast; 16.3 µM in the assay with DU-145 prostate; 17.1 µM in the assay on NCI-H226 lung; 18.9 µM in the assay with OVCAR-5 ovarian; 25.1 µM in the assay on PC-3 prostate; 21.9 µM in the assay on SF-539 CNS. Also, the GI50 in the assay on SK-OV-3 ovarian is 16 µM; with SNB-19 CNS, 15.8 µM; with UO-31 renal, 10.5 µM. In addition, the TGI in the assay with BT-549 breast is 29.6 µM; with DU-145 prostate it was 41.7 µM; with NCI-H226 lung, 34.4 µM; in the assay on OVCAR-5 ovarian, 34.6 µM; in the assay with PC-3 prostate it was over 100 µM; with SF-539 CNS, 54 µM. The TGI in the assay on SK-OV-3 ovarian worked out at 32.2 µM; in the assay on SNB-19 CNS it was 35.5 µM; in the assay on UO-31 renal, 71.9 µM.
On to `N=C(N)c1ccc2oc3ccc(C(=N)N)cc3c(=O)c2c1`, for which the TGI in the assay with BT-549 breast, with DU-145 prostate, in the assay on NCI-H226 lung, in the assay on OVCAR-5 ovarian, with PC-3 prostate and with SF-539 CNS was over 100 µM in each case. For the same molecule, the TGI in the assay on SK-MEL-2 melanoma, in the assay on SNB-19 CNS and in the assay on UO-31 renal was over 100 µM throughout.
Consider `CCc1ccc2c(c1)C(=O)c1c-2n(CCCN)c(=O)c2cc(OC)c(OC)cc12`, for which the GI50 was 1.65 µM in the assay with BT-549 breast; 1.62 µM in the assay with DU-145 prostate; 21 µM in the assay on NCI-H226 lung; 1.82 µM with OVCAR-5 ovarian; 1.54 µM in the assay with PC-3 prostate; 1.64 µM in the assay on SF-539 CNS. In addition, the GI50 was 2 µM with SK-OV-3 ovarian, 1.85 µM in the assay on SNB-19 CNS and 1.74 µM with UO-31 renal. Also, the TGI in the assay on BT-549 breast was 3.17 µM; in the assay on DU-145 prostate, 3.07 µM; with NCI-H226 lung, 42.5 µM; in the assay on OVCAR-5 ovarian, 3.24 µM; with PC-3 prostate, 2.92 µM; in the assay with SF-539 CNS, 3.07 µM. Besides, the TGI in the assay with SK-OV-3 ovarian stood at 3.58 µM; in the assay on SNB-19 CNS, 3.46 µM; in the assay on UO-31 renal, 3.32 µM.
As to `COc1ccc(-c2nsc3c2NC(=O)CC3c2ccsc2)cc1` (configuration not stated), the GI50 was 1.28 µM in the assay on BT-549 breast; 0.422 µM with DU-145 prostate; 2.15 µM in the assay with NCI-H226 lung; 0.773 µM in the assay with OVCAR-5 ovarian; 0.334 µM in the assay on PC-3 prostate; 0.266 µM with SF-539 CNS. The GI50 with SK-OV-3 ovarian was 0.313 µM; in the assay on SNB-19 CNS, 1.05 µM; with UO-31 renal it was 1.84 µM. The TGI was 40.8 µM with BT-549 breast; 2.87 µM in the assay on DU-145 prostate; 16.9 µM in the assay on NCI-H226 lung; over 100 µM in the assay on OVCAR-5 ovarian; over 100 µM with PC-3 prostate; 13.7 µM with SK-OV-3 ovarian. Further, the TGI in the assay on SNB-19 CNS and in the assay with UO-31 renal was over 100 µM each time.
For the molecule `C=CCC(N[C@@H](CO)c1ccccc1)c1ccc2ccccc2n1` (some centres not stated), the GI50 in the assay with BT-549 breast, in the assay with DU-145 prostate, with NCI-H226 lung, with OVCAR-5 ovarian, in the assay with PC-3 prostate and with SF-539 CNS was over 100 µM each time. Besides, the GI50 in the assay with SK-MEL-2 melanoma is over 100 µM; with SK-OV-3 ovarian, over 100 µM; in the assay on UO-31 renal, 88.2 µM. Also, the TGI with BT-549 breast, in the assay on DU-145 prostate, in the assay on NCI-H226 lung, in the assay with OVCAR-5 ovarian, in the assay with PC-3 prostate and in the assay with SF-539 CNS was over 100 µM in each case. The TGI with SK-MEL-2 melanoma, with SK-OV-3 ovarian and in the assay with UO-31 renal was over 100 µM each time.
Take `Cc1cc(C)c2nc3c(c(C(O)C4CCCCN4)c2c1)CC/C3=C\c1ccc(Cl)cc1` (configuration not stated): the TGI with BT-549 breast, in the assay on DU-145 prostate, in the assay on NCI-H226 lung, in the assay with OVCAR-5 ovarian, in the assay with PC-3 prostate and in the assay with SF-539 CNS was over 100 µM throughout. For the same molecule, the TGI with SK-MEL-2 melanoma, in the assay on SK-OV-3 ovarian and in the assay with SNB-19 CNS was over 100 µM throughout.
For `O=S(=O)(c1ccccc1)N1CCCC(c2ccccc2)CC1` (configuration not stated), the TGI with BT-549 breast, in the assay on DU-145 prostate, with NCI-H226 lung, in the assay on OVCAR-5 ovarian, in the assay on PC-3 prostate and in the assay on SF-539 CNS was over 100 µM throughout. Also, the TGI with SK-MEL-2 melanoma, in the assay on SNB-19 CNS and in the assay on UO-31 renal was over 100 µM in each case.
Turning to `COC1C(OC(=O)c2ccc(C)[nH]2)C(O)C(Oc2ccc3c(O)c(NC(=O)c4ccc(O)c(CC=C(C)C)c4)c(=O)oc3c2Cl)OC1(C)C` (configuration not stated), the TGI stood at 42.5 µM in the assay with BT-549 breast; 75.4 µM with DU-145 prostate; 36.7 µM in the assay on NCI-H226 lung; 33.2 µM with OVCAR-5 ovarian; 29.3 µM with PC-3 prostate; 38.1 µM with SF-539 CNS. The TGI turned out to be 27 µM in the assay on SK-MEL-2 melanoma, 54.6 µM with SK-OV-3 ovarian and 30 µM in the assay on SNB-19 CNS.
